Test results published in patent US8722923B2, “Conjugates for treating neurodegenerative diseases and disorders” (Ramot at Tel-Aviv University Ltd., priority 2008, dated 2014).

Tests used:
MPTP acute model mice [1] = test: Experiment 1: open field test, MPTP acute model (AN-490); assay type: in vivo, C57/BL/6J mice
Procedure: The MPTP neurotoxin was administered on day 0, with 4 IP injections (each injection contained 20 mg/kg, 5 ml/kg) in saline. The various treatments or saline were administered on days 0, 1, 2, 3, 6, 7, 13 and 16. Each group of mice (n=6) was subjected, on days 3, 6, 8 and 16, to the open field test, and the following parameters were scored: the distance moved (FIGS. 2A and 2B), velocity (FIGS. 2C and 2D), time spent immobile (FIGS. 2E and 2F) and time spent in a high level of mobility (FIGS. 2G and 2H; strong mobility) during a period of 20 minutes. FIGS. 2A, 2C, 2E and 2G present the data obtained for the control mice, mice treated with L-DOPA and mice treated with AN-490. FIGS. 2B, 2D, 2F and 2H present the data obtained for control mice or mice treated with MPTP, MPTP with L-DOPA and MPTP with AN-490.
(§1) Acute model: On day 1, C57/BL mice received 4× […] injections of 20 mg/kg MPTP-HCl (Sigma), dissolved in saline solution, at 2 hours intervals.
The open field test measures behavioral responses, locomotor activity, hyperactivity, and exploratory behaviors. Open field test is also used as a measure of anxiety. Mice tend to avoid brightly illuminated, novel, open spaces, so the open field environment acts as an anxiogenic stimulus and allows for measurement of anxiety-induced locomotor activity and exploratory behaviors. The apparatus for the open field test is a square (0.5×0.5 meter) made of white melamine. All activities were recorded by a video camera mounted above the open field and scored in real-time by a motion-recognition software package (Noldus, Holland) that detects and analyzes the movements of the animals. The video image of the open field arena was partitioned into equal-size squares zone. Total distance, average speed, rearing/elongation behavior, and time spent in various parts of the field (e.g. the border areas vs. mid-area) were measured. Testing was carried out in a temperature, noise and light controlled room.

[2] = 0.16 ionic strength and 25° C.; cited from earlier work
[3] = tested on: MPTP sub-acute model mice; test: Experiment 2: observed vitality signs (level of motion, fur appearance), MPTP sub-acute model; assay type: in vivo, C57/BL/6J mice; conditions: MPTP sub-acute model, per os treatment; on Fur, observer 1: key: Split fur +; Shiny fur +++; on Fur, observer 2: key: Split fur +; Shiny fur +++; on Fur, observer 3: key: Split fur +; Shiny fur +++; on Fur, observer 4: key: Split fur +; Shiny fur +++; on Vitality, observer 3: key: slow motions +; normal motion +++; on Vitality, observer 4: key: slow motions +; normal motion +++
Text: FIG. […] 6 hereinabove. Six independent observers estimated the level of mice vitality by the level of motion of the mice (light purple, marked vitality) and fur appearance (dark purple). The results are an average of the observers' reports.

[4] = tested on: MPTP-Induced Parkinson's Disease Model in Mice; test: Example 2: MPTP acute toxicity model, tyrosine hydroxylase immunoreactive cells in the SNpc; assay type: in vivo, mice strain C57/bl; conditions: day 7, MPTP 4 x 20 mg/kg IP day 0, S.C once daily days 0-7, 40 mg/kg L-DOPA or equimolar
Procedure: Mice were administered 4 injections IP of MPTP (each injection contained 20 mg/kg, 5 ml/kg) or saline alone (control) at 2 hours intervals on day 0. Mice were then administered subcutaneously test solutions (TI) (either saline, L-DOPA or BL-1023) once daily throughout the 8 successive treatment days (days 0-7). On day 7, the mice were sacrificed and their brains were removed for immunohistochemistry analysis of the number of tyrosine hyroxylase immunostained cells at the level of the Substantia Nigra (SNpc).
Young adult (7-8 weeks old) male mice strain C57/bl were acclimated for one week prior to MPTP initiation. During acclimation and throughout the entire study duration, animals were housed within a limited access rodent facility and kept in groups of maximum 5 mice in polypropylene cages (23×17×14 cm), fitted with solid bottoms and filled with wood shavings as bedding material. Animals were provided ad libitum a commercial rodent diet and free access to drinking water, supplied to each cage via polyethylene bottles with stainless steel sipper tubes. […]
Immunohistochemistry staining was performed using Rabbit anti tyrosin hydroxylase (1:100). […] Quantitative analysis was effected by counting of immunoreactive cells at the widest dimension of the SNpc lateral to the roots of the third cranial nerve separating medial and lateral SNpc at the level of interpreduncular nucleus.

MPTP acute model mice [5] = test: Experiment 3: RotaRod test, MPTP acute model (BL-1023*); assay type: in vivo, C57/BL/6J mice; conditions: day 12, after initiation of treatment, per os
Procedure: Mice were administered the following treatments: saline (Control), MPTP+saline (MPTP), MPTP+L-DOPA 30 mg/kg (MPTP+Dopa), MPTP+L-DOPA 30 mg/kg+GABA 18.4 mg/kg (MPTP+G+D) MPTP+BL1023* 48.4 mg/kg (MPTP+1023 30) and MPTP+BL-1023* 24.2 mg/kg (MPTP+BL1023 15). The MPTP neurotoxin was administered on day 0, with 4 IP injections (each injection contained 20 mg/kg, 5 ml/kg) in saline. The various treatments or saline were administered on day 7, 9, 11 and 13 (total of 4 treatments). Each group of mice (n=10) was subjected to the RotaRod test, on day 6 (before initiation of treatment, FIG. 9A) and day 12 (after initiation of treatment, FIG. 9B) and the observed average duration on Rod, tested three times, are presented.
as §1
RotoRod Test: The test measures and records motor coordination of rats and mice using the natural fear of falling motivation. RotoRod (San Diego Industries, San Diego, Calif., USA) was set on 16 rpm speed and accelerated to maximum speed of 25 rpm. The time until the mouse fall was measured up to maximum 4 minutes. The measurements were performed three times for each mouse and the average was calculated. […] When the animal falls from the rotating rod, the photo beams were broken and the Rota-Rod recorded the animal's latency to fall. […]

N[C@@H](Cc1ccc(O)c(O)c1)C(=O)O [L-DOPA, 3,4-dihydroxy-L-phenylalanine]
motility / motor activity in open field (MPTP acute model mice [1]; MPTP treated mice, L-DOPA 25 mg/kg or AN-490 67.5 mg/kg by oral gavage, days 3, 6, 8, 16): lower the motility | motility in open field (distance moved, velocity, strong mobility, immobility) (MPTP acute model mice [1]; mice not treated with MPTP, L-DOPA 25 mg/kg per os, vs naïve mice or equimolar AN-490): tendency toward increase in motility | pKNH3 [2]: 9.42 | pKOH [2]: 8.97 | Fur, observer 1 [3]: +++ | Fur, observer 2 [3]: +++ | Fur, observer 3 [3]: +++ | Fur, observer 4 [3]: +++ | Vitality, observer 3 [3]: +++ | Vitality, observer 4 [3]: +++ | Number of TH Cells [4]: 39 | latency in the rotarod test shortened by MPTP (MPTP acute model mice [5]): not attenuated
